Like-named read-outs stand apart in the source and are kept apart here.
Assays:
PDE3 = PDE3 inhibition (literature values, PDE3/PDE4 specificity); type: biochemical; settings: measure of specificity
Text: These compounds are termed specific to PDE4, since they inhibit other PDEs either weakly or not at all. The inverse ratio between IC50 of a compound to PDE4s versus its inhibition of other cAMP-degrading PDEs, such as PDE3s is often used as a measure of specificity.

PDE4A probes = assay: Redistribution of the PDE4A probes (summary); type: cell-based; settings: compound alone
HSPDE4A4-H506N-EGFP = target: T1, HSPDE4A4-H506N-EGFP (Homo sapiens, UniProt P27815, H506N); assay: Spot formation in CHO cells transfected with HSPDE4A4-H506N-EGFP; type: cell-based; settings: clonal CHO, 23.5 hours
T1 construct: expressed in transfected cells
Procedure: (§1) The cells are then fixed with 4% formaldehyde buffer (pH7) for 1 hour, washed with PBS and stained with 1 μM Hoechst 33258 in PBS for 10 minutes at 25° C., then washed twice in PBS. Automated images are collected and analysed for the number of spots per cell as described in Example 2.
as §1, with “Cells are grown in HAM's F12 medium plus 10% FBS plus various concentrations of inhibitors for 23.5 hours. The” for “The”

HSPDE4A4-EGFP = target: T2, HSPDE4A4-EGFP (Homo sapiens, UniProt P27815); assay: Dispersal of preformed Rolipram-induced spots, HSPDE4A4-EGFP CHO cells; type: cell-based; settings: yes/no
T2 construct: expressed in transfected cells

HSPDE4A1-EGFP [1] = target: T3, HSPDE4A1-EGFP (Homo sapiens, UniProt P27815); assay: Spot dispersal in CHO cells transfected with HSPDE4A1-EGFP; type: cell-based
T3 construct: the ca. 1.95 kb coding region of HSPDE4A1 (GenBank Acc.no. U97584) is amplified; expressed in transfected cells
Procedure: (§2) […] The cells are then fixed with 4% formalin buffer (pH7) for 1 hour, washed with PBS and stained with 1 μM Hoechst 33258 in PBS for 10 minutes at 25° C., then washed twice in PBS. Automated images are collected and analysed for the number of spots per cell as described in Example 2.
as §2

HSPDE4A1-EGFP [2] = target: T3, HSPDE4A1-EGFP; assay: Competitive assay: reversal of Rolipram-induced spot dispersal, HSPDE4A1-EGFP CHO cells; type: cell-based; settings: yes/no
HSPDE4A4catD-EGFP = target: T4, HSPDE4A4catD-EGFP (Homo sapiens, UniProt P27815+Q08499); type: cell-based
T4 construct: the 3′-end catalytic region of HSPDE4D isoforms (nucleotides 700-2019 of HSPDE4D3 cDNA); HSPDE4A4 N-terminal fragment (nucleotides 1-1023 of L20965); expressed in transfected cells
Text: Transiently transfected or stably transfected (non-clonal) cells are allowed to adhere to chambered coverglasses in HAM's F12 medium containing 10% FBS.

PDE4 [3] = settings: cited from earlier work
PDE4 [4] = test system: T5, PDE4; settings: Saldou et al., 1998; read-out: IC50 against PDE4; cited from earlier work
T5 construct: other: Saldou et al., 1998; Such an enzyme preparation may be obtained from cells transfected with and expressing the PDE4 enzyme chosen

[5] = human, in vivo; cited from earlier work

T3 sequence (P27815 1-647 isoform P27815-4): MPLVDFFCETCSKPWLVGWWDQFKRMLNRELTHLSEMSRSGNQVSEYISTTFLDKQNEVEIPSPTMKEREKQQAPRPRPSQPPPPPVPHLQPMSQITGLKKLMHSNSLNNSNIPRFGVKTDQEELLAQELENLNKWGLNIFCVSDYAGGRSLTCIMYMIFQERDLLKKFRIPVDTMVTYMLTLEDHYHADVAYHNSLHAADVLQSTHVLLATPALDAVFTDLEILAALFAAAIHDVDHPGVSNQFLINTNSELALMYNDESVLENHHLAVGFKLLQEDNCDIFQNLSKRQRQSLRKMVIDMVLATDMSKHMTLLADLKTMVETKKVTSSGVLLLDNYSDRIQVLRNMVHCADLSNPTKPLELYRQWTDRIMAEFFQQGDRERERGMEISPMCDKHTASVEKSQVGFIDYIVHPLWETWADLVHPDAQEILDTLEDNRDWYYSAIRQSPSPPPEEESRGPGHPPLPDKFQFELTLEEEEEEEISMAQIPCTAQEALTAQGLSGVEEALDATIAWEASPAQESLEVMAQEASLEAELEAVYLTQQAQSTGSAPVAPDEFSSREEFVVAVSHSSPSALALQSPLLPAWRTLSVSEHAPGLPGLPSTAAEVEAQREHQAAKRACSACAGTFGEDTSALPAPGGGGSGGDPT
T4 sequence (P27815+Q08499 fused with the stated changes, form open): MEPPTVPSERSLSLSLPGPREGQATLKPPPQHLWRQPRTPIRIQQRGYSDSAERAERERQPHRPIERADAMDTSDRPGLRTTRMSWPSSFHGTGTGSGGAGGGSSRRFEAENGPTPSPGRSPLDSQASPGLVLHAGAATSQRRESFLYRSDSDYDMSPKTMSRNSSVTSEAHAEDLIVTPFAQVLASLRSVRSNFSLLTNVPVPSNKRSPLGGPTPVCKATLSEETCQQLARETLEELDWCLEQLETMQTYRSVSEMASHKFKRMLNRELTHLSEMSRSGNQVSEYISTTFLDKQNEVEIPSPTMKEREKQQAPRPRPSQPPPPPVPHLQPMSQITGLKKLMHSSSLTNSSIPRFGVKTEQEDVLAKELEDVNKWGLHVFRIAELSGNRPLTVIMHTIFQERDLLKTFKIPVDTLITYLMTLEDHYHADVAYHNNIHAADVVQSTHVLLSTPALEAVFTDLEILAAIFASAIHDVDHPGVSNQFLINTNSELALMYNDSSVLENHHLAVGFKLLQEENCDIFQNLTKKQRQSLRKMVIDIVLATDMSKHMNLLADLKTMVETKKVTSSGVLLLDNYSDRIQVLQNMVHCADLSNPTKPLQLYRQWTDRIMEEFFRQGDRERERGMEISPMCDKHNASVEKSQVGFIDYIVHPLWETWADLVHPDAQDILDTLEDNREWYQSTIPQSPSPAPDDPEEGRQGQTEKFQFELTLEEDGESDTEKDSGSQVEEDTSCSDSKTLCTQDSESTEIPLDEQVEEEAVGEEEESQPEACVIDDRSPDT
T2 sequence (P27815 whole entry): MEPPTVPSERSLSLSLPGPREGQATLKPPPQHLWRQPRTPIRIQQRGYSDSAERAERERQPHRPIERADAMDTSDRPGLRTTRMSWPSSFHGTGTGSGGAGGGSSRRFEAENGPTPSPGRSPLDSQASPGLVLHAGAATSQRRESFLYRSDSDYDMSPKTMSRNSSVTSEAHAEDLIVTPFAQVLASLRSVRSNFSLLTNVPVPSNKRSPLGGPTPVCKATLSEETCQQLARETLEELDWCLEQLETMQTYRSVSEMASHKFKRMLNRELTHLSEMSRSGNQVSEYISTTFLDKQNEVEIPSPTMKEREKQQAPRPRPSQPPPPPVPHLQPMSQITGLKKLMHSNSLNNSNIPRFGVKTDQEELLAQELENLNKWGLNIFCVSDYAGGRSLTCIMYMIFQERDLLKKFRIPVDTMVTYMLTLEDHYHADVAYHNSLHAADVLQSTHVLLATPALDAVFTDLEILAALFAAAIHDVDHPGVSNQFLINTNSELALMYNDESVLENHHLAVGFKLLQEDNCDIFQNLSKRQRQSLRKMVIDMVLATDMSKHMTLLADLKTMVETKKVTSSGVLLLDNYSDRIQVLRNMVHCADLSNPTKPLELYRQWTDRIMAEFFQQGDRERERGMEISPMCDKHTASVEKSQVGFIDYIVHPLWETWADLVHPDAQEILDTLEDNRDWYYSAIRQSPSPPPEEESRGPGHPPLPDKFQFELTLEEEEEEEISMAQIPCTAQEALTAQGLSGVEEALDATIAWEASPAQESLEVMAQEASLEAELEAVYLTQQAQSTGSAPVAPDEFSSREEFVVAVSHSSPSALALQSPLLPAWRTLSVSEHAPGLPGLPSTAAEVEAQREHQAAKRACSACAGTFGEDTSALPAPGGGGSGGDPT
T1 sequence (P27815 whole entry H506N): as the sequence (P27815 whole entry) above, with H506N counted along it

## O=c1c2cccnc2n(-c2cccc([N+](=O)[O-])c2)c(=O)n1Cc1ccncc1 [RS25344]
PDE3
  (IC50 PDE3)/(IC50 PDE4): 1,170,000
PDE4A probes
  redistribution of the PDE4A probes: indistinguishable from those induced by Rolipram treatment
HSPDE4A4-H506N-EGFP
  EC50: 125 nM
HSPDE4A4-EGFP
  Removal of Rolipram-induced PDE4A4-spots: no
HSPDE4A1-EGFP [1]; Rolipram 2 micromolar 2 hours, others over the ranges tested
  dispersal of PDE4A1 spots (in words): reduce PDE4A1 spot numbers
HSPDE4A1-EGFP [1]; clonal CHO, 23.5 hours, estimated
  EC50: 5 nM
HSPDE4A1-EGFP [1]; yes/no
  Removal of PDE4A1 spots: yes
HSPDE4A1-EGFP [2]
  Reversal of Rolipram-induced removal of PDE4A1 spots: no
HSPDE4A4catD-EGFP; 1 μM RS25344 32 hours, stably transfected, 10 μM Rolipram 26 hours, transiently transfected
  spot formation (in words): Many cells in this stable population respond by forming pairs of bright spots
HSPDE4A4catD-EGFP; after addition of 1 μM RS25344
  time until spots begin to be visible: about 6 hours
PDE4 [3]; literature values quoted in Example 5 (Saldou 1998; Ahluwalia 1982; Rubin 1991), read-out: IC50 against PDE4
  IC50: 0.28 nM
PDE4 [3]; yes/no
  Inhibition of PDE4 catalytic activity: yes
PDE4 [4]
  IC50: 0.28 nM
[5]
  Clinical effect: anti-
  Emesis: yes
